Measured values published in paper PMC9105976, “A Novel β-Hairpin Peptide Z-d14CFR Enhances Multidrug-Resistant Bacterial Clearance in a Murine Model of Mastitis” (International Journal of Molecular Sciences, 2022).
Positions of bridges follow the written chain, without caps; N, C: chain ends. Residues, ends and D or L forms follow the SMILES beside them.

Key:
S. aureus ATCC29213 [1] = test: Time-killing assay; format: cell-based; conditions: 2 MIC, CFU counts at 0-24 h
Protocol: (§1) E. coli ATCC25922 and S. aureus ATCC29213 in the mid-logarithmic phase were diluted into 1 × 10^6 CFU/mL with 10 mM PBS, and incubated with 10 μL Z-d14CFR in a final concentration of 2 MIC. At 0, 4, 8, 12, 16, 20, and 24 h, the mixture was serial diluted and spread onto LB agar plates. After 16 h of cultivation, the CFU number of bacteria was counted to evaluate the ability of peptide to kill bacteria. The bacteria treated with 10 mM PBS as a negative control, and meanwhile incubated with 2 MIC gentamicin or polymyxin B as a positive control.

E. coli ATCC25922 [2] = test: Time-killing assay; format: cell-based; conditions: 2 MIC, CFU counts at 0-24 h
Protocol: as §1

[3] = Retention time of peptide in HPLC (hydrophobicity); format: physicochemical; conditions: used as measure of hydrophobicity (order Z-d14CR > Z-d14CF > Z-d13 > Z-d14CFR > Z-d14C); column and gradient not given
MRSA ATCC33591 = test: MIC/MBC, microdilution broth method; format: cell-based, S. aureus; conditions: MRSA ATCC33591; kills 99.9% bacteria; NA = no activity at 1 mg/mL
Protocol: (§2) The MIC of peptides against bacteria was carried out by the microdilution broth method. The bacterial culture (OD 600 = 0.6) was diluted in 10 mM PBS to 1 × 10^6 CFU/mL. The bacterial suspension (100 μL) was added to 96-well plates, and the same volume of peptides, ampicillin or gentamicin (concentrations ranging from 0.001 to 2 mg/mL) were then added to the same 96-well plates, respectively.

[4] = tested on: mammalian cells (MAC-T, Hela, Vero); test: Cytotoxicity, CCK8; format: cell-based; conditions: at 1 mg/mL, 24 h in DMEM with 1% FBS, CCK8, OD 450 nm, three independent experiments
Protocol: The cytotoxicity of peptides to mammalian cells was carried out according to CCK8 instructions (Beyotime, Shanghai, China). 1 × 10^4 Hela, Vero and MAC-T cells were, respectively, added in 96-well plates and cultured at 37 °C with 5% CO2 for 24 h. Then, the cells were washed thrice with 10 mM PBS to remove medium and then incubated with 100 μL peptide in DMEM with 1 % (v/v) FBS (finally concentration ranging from 1 mg/mL to 0.001 mg/mL). After incubating at 37 °C with 5% CO2 for 24 h, 10 μL CCK8 was added to the cells and then continued to be incubated at 37 °C for 4 h. CCK8 interacted with PBS without cells as the blank control. The absorbance of the mixture was measured at 450 nm and cell viability was calculated as follows: Cell viability (%) = (OD 450 peptide − OD 450 Blank)/(OD 450 PBS − OD 450 Blank) × 100%.

S. aureus ATCC29213 [5] = test: Cytoplasmic membrane integrity, SYTO 9/PI flow cytometry; format: cell-based; conditions: 2 MIC, 3 h, flow cytometry, 10,000 cells, PBS 0.4%
Protocol: (§3) E. coli ATCC25922 and S. aureus ATCC29213 (OD600 = 0.6) were washed and diluted into 1 × 10^8 CFU/mL in sterile saline. The cells were treated with Z-d14CFR in the final concentration of 2 MIC for 3 h. Following that, the same volume of a mixture contains SYTO 9 dye and PI (Thermo Fisher, Waltham, MA, USA) (v/v, 1:1) was added to bacteria and incubated at 37 °C in the dark for 15 min. The bacteria were washed with saline to remove the unbound dye and then observed with a Nikon A1 confocal laser scanning microscope.
(§4) In order to further determine the percentage of PI-positive cells, the data of 10,000 cells were collected and analyzed by BD LSRFortessa flow cytometer.

E. coli ATCC25922 [6] = test: as above; format: cell-based; conditions: 2 MIC, 3 h, flow cytometry, 10,000 cells, PBS 0%
Protocol: as §3, §4

[7] = tested on: Proteus vulgaris CVCC1971; test: MIC/MBC, microdilution broth method; format: cell-based; conditions: Proteus vulgaris CVCC1971; kills 99.9% bacteria; NA = no activity at 1 mg/mL
Protocol: as §2

[8] = tested on: Streptococcus suis CVCC3307; test: MIC/MBC, microdilution broth method; format: cell-based; conditions: Streptococcus suis CVCC3307; kills 99.9% bacteria; NA = no activity at 1 mg/mL
Protocol: as §2

S. aureus ATCC29213 [9] = test: Extracellular β-galactosidase assay; format: cell-based; conditions: 2 MIC, 4 h at 37 °C, ONPG, OD 420 nm, compared with PBS, p < 0.001
Protocol: (§5) E. coli ATCC25922 and S. aureus ATCC29213 were washed and resuspended with 10 mM PBS into OD 600 = 0.5. […] Then, 190 μL of the supernatants was incubated with 10 μL 2-nitrophenyl-β-d-galactopyranoside, ONPG (Macklin, N814742, Shanghai, China) at a final concentration of 3 mM at 37 °C for 30 min. The absorbance at 420 nm was measured to assess the level of β-galactosidase outside the cells. The bacteria treated with 10 mM PBS in absence of peptide as the negative control and treated with ultrasonication as the positive control.

E. coli ATCC25922 [10] = test: Extracellular β-galactosidase assay; format: cell-based; conditions: 2 MIC, 4 h at 37 °C, ONPG, OD 420 nm, compared with PBS, p < 0.001
Protocol: as §5

E. coli CAU201919 = test: Murine model of mastitis induced by MDR E. coli; format: in vivo, mice; conditions: Z-d14CFR 25 μg or gentamicin 10 μg via milk duct at 3 h and 15 h, 27 h post-infection
Text: In this study, the therapeutic effects of Z-d14CFR on MDR bacterial infection in vivo was verified by a murine mastitis model. E. coli CAU201919 was used to establish the mastitis model because it is highly pathogenic compared with other bacteria and is resistant to various antibiotics, such as ampicillin, amoxicillin and cefazolin. In brief, 45 Crl:CD1 female mice at 17–18 days of gestation were purchased from Beijing Vital River Laboratory Animal Technology Co., Ltd. (Beijing, China) and kept in the Laboratory Animal Center of China Agricultural University (Beijing, China). At 72 h post-partum, the mice were randomly divided into 5 groups (n = 9 per group) and the offspring were removed 3 h before of administration. The mice were anesthetized by Zoletil 50 (55 mg/kg body weight, WK001, Virbac, France) and held under the stereoscope in a supine position. Mice in the saline group and Z-d14CFR group were intraductal inoculated with 50 μL normal saline or 50 μL Z-d14CFR (25 μg each teat) alone to the milk duct. Mice in other groups were inoculated with 25 μL (1 × 10^5 CFU) E. coli CAU201919 suspension to the milk duct, and after 3 h of E. coli challenged, mice were treated with 25 μL saline, Z-d14CFR (25 μg) or gentamicin (10 μg), respectively, via milk duct injection. Then the mice were given the same treatment after 15 h of E. coli challenged. After 27 h of E. coli challenged, all mice were euthanized. The mammary gland tissues were collected to carry out bacterial count, histopathological examination and inflammatory factors examination.

[11] = tested on: E. coli ATCC25922 and S. aureus ATCC29213; test: Cytoplasmic membrane depolarization, DiSC3(5); format: cell-based; conditions: 2 MIC to 1/4 MIC; fluorescence 622/670 nm, 30 min
Protocol: The ability of Z-d14CFR to disrupt inner cytoplasmic membrane potential of E. coli ATCC25922 and S. aureus ATCC29213 was monitored using 3,3-dipropylthiadicarbocyanine iodide DiSC3(5) (Macklin, D864435, Shanghai, China) as previous mentioned. The bacteria were washed and resuspended with 5 mM HEPES, pH 7.4, containing 5 mM glucose and 100 mM KCl buffer into 1 × 10^6 CFU/mL. DiSC3(5) was subsequently added and incubated at 37 °C in the dark for 15 min until the fluorescence had stabilized. Z-d14CFR in a final concentration of 2 MIC, 1 MIC, 1/2 MIC and 1/4 MIC was added to the mixture. The fluorescence intensity was continuously monitored for 30 min by an excitation wavelength of 622 nm and an emission wavelength of 670 nm.

## CC(C)[C@@H]1NC(=O)[C@@H]2CSSC[C@H](NC(=O)[C@H](CCCNC(=N)N)NC(=O)[C@@H](NC(=O)CNC(=O)[C@@H](N)CCCNC(=N)N)CSSC[C@@H](C(=O)N[C@@H](CCCNC(=N)N)C(N)=O)NC1=O)C(=O)N[C@@H](CC(N)=O)C(=O)N[C@@H](CO)C(=O)N[C@@H](CCCCN)C(=O)N[C@@H](CO)C(=O)N[C@@H](Cc1ccccc1)C(=O)N2 [Z-d14CFR] (H-RGCRCNSKSFCVCR-NH2; disulfide 3-13, 5-11; N-terminus assumed)
S. aureus ATCC29213 [1]; 1 × 10^6 CFU/mL
  time to kill bacteria in the logarithmic phase: ≤ 4 h
S. aureus ATCC29213 [1]
  time to kill bacteria in the plateau: ≤ 16 h
E. coli ATCC25922 [2]; 1 × 10^6 CFU/mL
  time to kill bacteria in the logarithmic phase: ≤ 4 h
E. coli ATCC25922 [2]
  time to kill bacteria in the plateau: ≤ 16 h
[3]
  RT, retention time of peptide in HPLC: 7.820 min
MRSA ATCC33591
  MBC: NA (NA) (No antimicrobial activity at 1 mg/mL)
[4]
  cytotoxicity: < 10%
S. aureus ATCC29213 [5]
  PI-positive bacteria: 3.4%
E. coli ATCC25922 [6]
  PI-positive bacteria: 12.5%
[7]
  MBC: NA (NA) (No antimicrobial activity at 1 mg/mL)
[8]
  MBC: NA (NA) (No antimicrobial activity at 1 mg/mL)
S. aureus ATCC29213 [9]
  extracellular release of β-galactosidase: significantly induced the release of β-galactosidase
E. coli ATCC25922 [10]
  extracellular release of β-galactosidase: significantly induced the release of β-galactosidase
E. coli CAU201919; Crl:CD1 mice, 1 × 10^5 CFU E. coli CAU201919 intraductal, infected only about 3.71 × 10^9, p < 0.001
  bacterial burden in the mammary gland: 3.57 × 10^8 CFU/g tissue
E. coli CAU201919
  histopathologic damage of the mammary gland (acinar wall thickening, neutrophils infiltration): obviously ameliorated
E. coli CAU201919; p < 0.001
  increase in IL-1β mRNA expression in the mammary gland: attenuated
  increase in TNF-α mRNA expression in the mammary gland: attenuated
[11]
  DiSC3(5) release (cytoplasmic membrane depolarization): remarkable releasing of DiSC3(5)
